Laboratory results published in US8236820B2, “Anti-inflammatory compounds and uses thereof” (priority 2007, dated 2012).

Legend:
[1] = tested on: MDA-MB 231 human breast cancer cells; assay: Cell proliferation assay (BrdU incorporation) in MDA-MB231; type: cell-based; details: MDA-MB231, each compound at its IC50 concentration
Description: Cell proliferation assay: To determine cell proliferation, we measured the incorporation of 5-bromo-2′-deoxyuridine (BrdU) into newly synthesized cellular DNA, following the manufacture's instructions (BD Biosciences, San Jose, Calif.).
As summarized in Table 2 below, in MDA-MB231 cells, all six compounds, each used at its IC50 concentration, a) inhibited cell proliferation between 6% and 50% compared to controls; b) induced both early and late apoptosis, as well as necrosis; and c) inhibited the G1 to S cell cycle phase transition. In this Table, the values for proliferation are the percentage of the corresponding control values. Those for apoptosis and necrosis refer to the percentage of cells in each category with respect to the entire cell population, and are to be compared to the control (vehicle only-treated) cells (uppermost row).

Salmonella typhimurium = assay: Ames mutagenicity assay (reverse mutations); type: cell-based; details: two strains, presence and absence of S9 activation
Protocol: We assessed the safety of phospho-sulindac I by examining its genotoxicity by the Ames test and its gastrointestinal and other toxicity by performing a toxicological study in mice.
The mutagenic potential of phospho-sulindac I was evaluated by measuring its ability to induce reverse mutations at selected loci of two strains of Salmonella typhimurium in the presence and absence of S9 activation.

[2] = tested on: spermidine/spermine N^1-acetyltransferase (SSAT); assay: SSAT enzymatic activity in SW480 cells; type: cell-based, human
Protocol: SW480 cells were incubated without or with phospho-sulindac I (P-S) for up to 24 h and SSAT activity was determined at each time point by determining the amount of labelled N1-acetylspermidine synthesized from [^14C]acetyl-CoA and unlabeled spermidine.
The effect of phospho-sulindac I on polyamines is mediated, at least in part, by activation of SSAT by phospho-sulindac I. It is known that conventional sulindac induces SSAT activity (Babbar et al., Cyclooxygenase-independent induction of apoptosis by sulindac sulfone is mediated by polyamines in colon cancer. J Biol Chem 2003; 278(48):47762-75.). Incubation of HT-29 and SW480 cells with 85 μM phospho-sulindac I for 24 h leads to a 3- and 4.4-fold increase of SSAT activity (P<0.05 versus control), respectively. On the other hand, incubation with sulindac led to a 1.5 and 2.5-fold increase of SSAT activity (P<0.05 versus control) in HT-29 and SW480 cells, respectively.

MCF-7 = assay: Cell viability (MTT) assay, 24-h IC50, MCF-7; type: cell-based, human; details: Homo sapiens, MCF7, 24 h, read-out: 24-h IC50
SW480 = assay: DFMO / phospho-sulindac I synergy, cell growth at 48 h, SW480; type: cell-based, human; details: SW480, 48 h; DFMO 5 mM, phospho-sulindac I 40 μM
Protocol: (§1) A—Left panel: Cell viability was determined in HT-29 (full bars) and SW-480 (empty bars) cells after 48 h of incubation with 5 mM DFMO, 40 μM phospho-sulindac (P-S) or simultaneous combination of DFMO and P-S. Data are expressed as percentage of control cells (cells incubated only with DMSO). […] Right panel: In this isobologram the additivity line connects the IC50 value of each compound used alone. A and B represent two different dose pairs of each compound (their respective concentrations are shown in parentheses). The location of both A and B below the additivity line signifies synergy. […] DNA content was determined from propidium iodide (PI) fluorescence. C—Apoptosis and necrosis were determined by combined staining with annexin V and PI and determining fluorescence intensity. The percentages of apoptotic cells were determined using the dual staining with annexin V and propidium iodide and are indicated in each quadrant: left bottom quadrant, viable cells (annexin V-negative/PI-negative); right bottom quadrant, early apoptotic cells (annexin V-positive/PI-negative); right upper quadrant, late apoptotic cells (annexin V-positive/PI-positive); left upper quadrant, necrotic cells (annexin V-negative, PI-positive). […]

HT29 = assay: Cell viability (MTT) assay, 24-h IC50, HT29; type: cell-based, human; details: Homo sapiens, HT-29, 24 h, read-out: 24-h IC50
colon cancer cells = assay: Apoptosis (annexin V/PI), DFMO and phospho-sulindac I, 48 h; type: cell-based, human; details: 48 h of incubation; concentrations below IC50s
Protocol: as §1

SW480 cells = assay: Polyamine levels in SW480 cells; type: cell-based, human
Description: Further evidence of the synergy between the two compounds was provided by their effect on polyamine levels. Conventional sulindac is known to reduce polyamine levels in colon cancer cells (Yerushalmi et al. Role of polyamines in arginine-dependent colon carcinogenesis in Apc(Min) (/+) mice. Mol Carcinog 2006; 45(10):764-73.; Choi et al. Combination of 5-fluorouracil and N1,N11-diethylnorspermine markedly activates spermidine/spermine N1-acetyltransferase expression, depletes polyamines, and synergistically induces apoptosis in colon carcinoma cells. J Biol Chem 2005; 280(5):3295-304; and Basuroy and Gerner. Emerging concepts in targeting the polyamine metabolic pathway in epithelial cancer chemoprevention and chemotherapy. J Biochem (Tokyo) 2006; 139(1):27-33).

HT-29 = assay: DFMO / phospho-sulindac I synergy, cell growth at 48 h, HT-29; type: cell-based, human; details: HT-29, 48 h; DFMO 5 mM, phospho-sulindac I 40 μM
Protocol: as §1

CCOP(=O)(OCC)OCCCCOC(=O)CC1=C(C)/C(=C/c2ccc([S+](C)[O-])cc2)c2ccc(F)cc21 (stereo not shown) [Phospho-sulindac I]
Proliferation (% control) [1]: 52 % control
genotoxicity (mutagenic potential) (Salmonella typhimurium): negative for genotoxicity
induction of SSAT compared to vehicle-treated controls ([2]; SW480, 85 μM, 12 h of incubation): 4 fold
maximum increase of SSAT ([2]; SW480, 85 μM, 18 h of incubation): 5.5 fold
increase of SSAT activity ([2]; SW480, 24 h, phospho-sulindac I 85 μM, P<0.05 versus control): 4.4 fold
IC50 (MCF-7): 62 µM
reduction in cell number (SW480): 45%
IC50 (HT29): 65 µM
percentage of apoptotic cells (colon cancer cells): 16.5%
level of putrescine (SW480 cells): 91 % of control values
level of spermidine (SW480 cells): 34 % of control values
level of spermine (SW480 cells): 9 % of control values
reduction in cell number (HT-29): 41%
